In PubChem BioAssay (NCI):
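Results reflect a 48-hour exposure of cells in 96-well plates to compound at five concentrations. TGI denotes the concentration required for complete inhibition of growth.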

Experiments:
Test in all cases: NCI anticancer screen, dose series, 48 h
786-0 renal = test system: 786-0 renal
A498 renal = test system: A498 renal
A549 NSCLC = test system: A549 NSCLC
ACHN renal = test system: ACHN renal
BT-549 breast = test system: BT-549 breast
CAKI-1 renal = test system: CAKI-1 renal
CCRF-CEM leukemia = test system: CCRF-CEM leukemia
COLO 205 colon = test system: COLO 205 colon
DU-145 prostate = test system: DU-145 prostate
EKVX NSCLC = test system: EKVX NSCLC
HCC-2998 colon = test system: HCC-2998 colon
HCT-116 colon = test system: HCT-116 colon
HCT-15 colon = test system: HCT-15 colon
HL-60(TB) leukemia = test system: HL-60(TB) leukemia
HOP-62 NSCLC = test system: HOP-62 NSCLC
HOP-92 NSCLC = test system: HOP-92 NSCLC
HS 578T breast = test system: HS 578T breast
HT29 colon = test system: HT29 colon
IGROV1 ovarian = test system: IGROV1 ovarian
K-562 leukemia = test system: K-562 leukemia
KM12 colon = test system: KM12 colon
LOX IMVI melanoma = test system: LOX IMVI melanoma
M14 melanoma = test system: M14 melanoma
MALME-3M melanoma = test system: MALME-3M melanoma
MCF7 breast = test system: MCF7 breast
MDA-MB-231 breast = test system: MDA-MB-231 breast
MDA-MB-435 = test system: MDA-MB-435
MDA-N = test system: MDA-N
MOLT-4 leukemia = test system: MOLT-4 leukemia
NCI-H226 lung = test system: NCI-H226 lung
NCI-H23 lung = test system: NCI-H23 lung
NCI-H460 lung = test system: NCI-H460 lung
NCI-H522 lung = test system: NCI-H522 lung
NCI/ADR-RES ovarian = test system: NCI/ADR-RES ovarian
OVCAR-3 ovarian = test system: OVCAR-3 ovarian
OVCAR-4 ovarian = test system: OVCAR-4 ovarian
OVCAR-5 ovarian = test system: OVCAR-5 ovarian
OVCAR-8 ovarian = test system: OVCAR-8 ovarian
PC-3 prostate = test system: PC-3 prostate
RPMI-8226 leukemia = test system: RPMI-8226 leukemia
RXF 393 renal = test system: RXF 393 renal
SF-268 CNS = test system: SF-268 CNS
SF-295 CNS = test system: SF-295 CNS
SF-539 CNS = test system: SF-539 CNS
SK-MEL-2 melanoma = test system: SK-MEL-2 melanoma
SK-MEL-5 melanoma = test system: SK-MEL-5 melanoma
SK-OV-3 ovarian = test system: SK-OV-3 ovarian
SN12C renal = test system: SN12C renal
SNB-19 CNS = test system: SNB-19 CNS
SNB-75 CNS = test system: SNB-75 CNS
SR leukemia = test system: SR leukemia
SW-620 colon = test system: SW-620 colon
T-47D breast = test system: T-47D breast
TK-10 renal = test system: TK-10 renal
U251 CNS = test system: U251 CNS
UACC-257 melanoma = test system: UACC-257 melanoma
UACC-62 melanoma = test system: UACC-62 melanoma
UO-31 renal = test system: UO-31 renal
SK-MEL-28 melanoma = test system: SK-MEL-28 melanoma

Measured: TGI

CCCCc1ccc(Nc2nc3c(ncn3COCCBr)c(=O)[nH]2)cc1
not listed: SK-MEL-28 melanoma
> 100 µM: all other assays above

O=c1oc2c([N+](=O)[O-])cc([N+](=O)[O-])cc2c2ccccc12
not listed: KM12 colon | SK-OV-3 ovarian | UO-31 renal
> 100 µM: all other assays above
